Reference: PMC11003478, “Spiro heterocycles bearing piperidine moiety as potential scaffold for antileishmanial activity: synthesis, biological evaluation, and in silico studies” (Journal of Enzyme Inhibition and Medicinal Chemistry, 2022)
Where “and” joins values, the source holds several entries; their conditions need not be identical. Identical values can stand only once. Like-named read-outs stand apart in the source and are kept apart here.

What was measured:
[1] = test system: L. major promastigote form; assay: In vitro antileishmanial activity, promastigote form; type: cell-based, Leishmania major; conditions: read-out: Antipromastigotes IC50, µM ± SD
Method: All synthesised compounds were evaluated against L. major promastigote form.
(§1) We used both promastigote and amastigote forms of L. major strain for the in vitro evaluation. All experimental steps were carried out as reported earlier[35]^,[36]. The value of the compound concentration causing 50% inhibition (IC50) was calculated. The software employed is Graph Pad Prism 6 software (GraphPad Software, San Diego, CA, USA).

[2] = test system: L. major axenic amastigote form; assay: In vitro antileishmanial activity, axenic amastigote form; type: cell-based, Leishmania major
Method: as §1

[3] = In vitro cytotoxicity testing on VERO cells; conditions: African green monkey
VERO cells = assay: In vitro cytotoxicity testing on VERO cells; conditions: for SI (selectivity index; SI = CC50/IC50): CC50 VERO cells / antileishmanial IC50; for CC50 (VERO cells) higher than IC50 (promastigotes): VERO cells versus promastigotes of leishmania parasite
Leishmania = test system: Leishmania; parameters: method as in PMID 34311084; conditions: cited from earlier work
[4] = test system: L. major promastigote (folate pathway, DHFR and PTR1); assay: Reversal of antileishmanial activity by folic acid and folinic acid (folate pathway inhibition); type: cell-based, Leishmania major; conditions: for Percentage survival, Folic acid 100 µM / Percentage survival, No Cpd added: test compound above its IC50 (trimethoprim 100 µM); for Percentage survival, No Cpd added: no folic or folinic acid; for Percentage survival, Folic acid 20µM: test compound above its IC50, folic acid 20µM; for Percentage survival, Folinic acid 20 µM: test compound above its IC50, folinic acid 20 µM; for Percentage survival, Folinic acid 100 µM: test compound above its IC50, folinic acid 100 µM
Method: It is worthy to mention that folic acid competes for the active sites of both DHFR and PTR1 while folinic acid involves in DNA synthesis without any necessity to undergo activation.
This experiment was performed on the in vitro growth assay for the promastigote and based on the previously published methodology. All experimental steps were performed as reported earlier.

promastigote = test system: promastigote; parameters: method as in PMID 27503653; conditions: read-out: Anti-promastigote EC50; cited from earlier work
amastigote = test system: amastigote; parameters: method as in PMID 27503653; conditions: read-out: Anti-amastigote EC50; cited from earlier work
[5] = test system: bisubunit DNA topoisomerase IB of L. donovani; parameters: method as in PMID 27503653; conditions: cited from earlier work
[6] = Leishmania major, L. major promastigote, 50% growth inhibition
[7] = Leishmania major, L. major axenic amastigote, 50% growth inhibition, read-out: Antiamastigote IC50, µM ± SD
[8] = VERO cells (African green monkey kidney cells)
[9] = Leishmania major, read-out: Antiamastigote IC50, µM ± SD, L. major axenic amastigote, 50% growth inhibition

Q: With N#CC1=C(N)N(c2ccccc2)C2(CNC1c1ccccc1)CC(c1ccccc1)N(Cc1ccccc1)C(c1ccccc1)C2 (stereo not drawn) [Compound 7a, 8-Amino-3-benzyl-2,4,7,10-tetraphenyl-3,7,11-triazaspiro[5.6]dodec-8-ene-9-carbonitrile] as the compound, how does the melting point read?
A: > 300 °C

Q: Which IC50 ([1]; L. major promastigote, 50% growth inhibition) does the source give for CCCCCCCCCCCCCCCCOP(=O)([O-])OCC[N+](C)(C)C [Miltefosine, reference compound] here?
A: 7.9 ± 0.28 µM

Q: What about the IC50 [1, 6] of the same compound?
A: 7.89 µM

Q: What about the IC50 [2, 7] of the same compound?
A: 8.08 ± 0.24 µM

Q: What about the CC50 at 72 h [3, 8] of the same compound?
A: 99.7 µM

Q: What about the “SI (selectivity index; SI = CC50/IC50)” value (VERO cells) of the same compound?
A: 12.6

Q: With CN(C)c1ccc(/C=N/N2C(=O)C(C#N)=CC23c2ccccc2Nc2ccccc23)cc1 [C] as the compound, how does the “Antileishmanial EC50” value (Leishmania) read?
A: 0.97 µg/mL

Q: With N=C1NNC2(CC(c3ccccc3)N(Cc3ccccc3)C(c3ccccc3)C2)S1 (stereo not drawn) [Compound 12, 8-Benzyl-7,9-diphenyl-4-thia-1,2,8-triazaspiro[4.5]decan-3-imine] as the compound, how does the IC50 [1, 6] read?
A: 2.21 ± 0.22 µM

Q: And the IC50 [2, 7]?
A: 3.43 ± 0.14 µM

Q: Which IC50 ([1]; Leishmania major) does the source give for O=C1CNC(=O)C2(CC(c3ccccc3)N(Cc3ccccc3)C(c3ccccc3)C2)N1c1ccccc1 (stereo not drawn) [Compound 9a, 9-Benzyl-1,8,10-triphenyl-1,4,9-triazaspiro[5.5]undecane-2,5-dione] here?
A: 0.41 ± 0.04 µM

Q: And the IC50 [2, 9]?
A: 0.5 µM

Q: And the IC50 ([2]; Leishmania major, read-out: Antileishmanial IC50 µM, IC50 used for the selectivity index in Table 4)?
A: 0.501 µM

Q: What about the IC50 ([2]; read-out: Antiamastigote IC50, µM ± SD, L. major axenic amastigote, 50% growth inhibition) of the same compound?
A: 0.501 ± 0.16 µM

Q: And the “Percentage survival, Folic acid 100 µM” value [4]?
A: 84%

Q: And the “Percentage survival, No Cpd added” value [4]?
A: 26%

Q: And the “Percentage survival, Folic acid 20µM” value [4]?
A: 76%

Q: And the “Percentage survival, Folinic acid 20 µM” value [4]?
A: 80%

Q: What about the “Percentage survival, Folinic acid 100 µM” value [4] of the same compound?
A: 92%

Q: And the melting point?
A: 201 to 203 °C

Q: What about the CC50 at 72 h [3] of the same compound?
A: 125 µg/mL and 249 µM

Q: And the “SI (selectivity index; SI = CC50/IC50)” value (VERO cells)?
A: 497.37

Q: What about the “CC50 (VERO cells) higher than IC50 (promastigotes)” value (VERO cells) of the same compound?
A: at least 2 orders of magnitude

Q: With N=C1N(c2ccccc2)C(=O)N(c2ccccc2)C12CC(c1ccccc1)N(Cc1ccccc1)C(c1ccccc1)C2 (stereo not drawn) [Compound 11a, 8-Benzyl-4-imino-1,3,7,9-tetraphenyl-1,3,8-triazaspiro[4.5]decan-2-one] as the compound, how does the IC50 [1, 6] read?
A: 2.44 ± 0.22 µM

Q: What about the IC50 [2, 7] of the same compound?
A: 4.87 ± 0.32 µM

Q: What about the melting point of the same compound?
A: 180 to 183 °C

Q: For c1ccc(CN2C(c3ccccc3)CC3(CC2c2ccccc2)NCCN3)cc1 (stereo not drawn) [Compound 13, 8-Benzyl-7,9-diphenyl-1,4,8-triazaspiro[4.5]decane], which IC50 [1, 6] is on record?
A: 1.34 ± 0.14 µM

Q: And the IC50 [2, 7]?
A: 3.24 ± 0.22 µM

Q: What about the melting point of the same compound?
A: 209 to 211 °C

Q: With COc1cc(Cc2cnc(N)nc2N)cc(OC)c1OC [Trimethoprim, reference compound] as the compound, how does the “Percentage survival, Folic acid 100 µM” value [4] read?
A: 99%

Q: And the “Percentage survival, No Cpd added” value [4]?
A: 72%

Q: Which IC50 [1, 6] does the source give for O=C1NC(=O)C2(CC(c3ccccc3)N(Cc3ccccc3)C(c3ccccc3)C2)N1c1ccccc1 (stereo not drawn) [Compound 8a, 8-Benzyl-1,7,9-triphenyl-1,3,8-triazaspiro[4.5]decane-2,4-dione] here?
A: 1.12 ± 0.12 µM

Q: And the IC50 ([2]; Leishmania major, IC50 used for the selectivity index in Table 4, read-out: Antileishmanial IC50)?
A: 0.895 µM

Q: And the IC50 [2, 7]?
A: 0.89 µM

Q: What about the “Percentage survival, Folic acid 100 µM” value [4] of the same compound?
A: 81%

Q: What about the “Percentage survival, No Cpd added” value [4] of the same compound?
A: 20%

Q: And the “Percentage survival, Folic acid 20µM” value [4]?
A: 72%

Q: What about the “Percentage survival, Folinic acid 20 µM” value [4] of the same compound?
A: 76%

Q: And the “Percentage survival, Folinic acid 100 µM” value [4]?
A: 87%

Q: What about the melting point of the same compound?
A: 188 to 190 °C

Q: What about the CC50 at 72 h [3, 8] of the same compound?
A: 62.5 µg/mL and 128 µM

Q: What about the “SI (selectivity index; SI = CC50/IC50)” value (VERO cells) of the same compound?
A: 143.38

Q: What about the “CC50 (VERO cells) higher than IC50 (promastigotes)” value (VERO cells) of the same compound?
A: at least 2 orders of magnitude

Q: For N=C1N(c2ccccc2)C(=S)N(c2ccccc2)C12CC(c1ccccc1)N(Cc1ccccc1)C(c1ccccc1)C2 (stereo not drawn) [Compound 11b, 8-Benzyl-4-imino-1,3,7,9-tetraphenyl-1,3,8-triazaspiro[4.5]decane-2-thione], which IC50 [1, 6] is on record?
A: 3.27 ± 0.32 µM

Q: What about the IC50 [2, 7] of the same compound?
A: 4.89 ± 0.34 µM

Q: And the melting point?
A: 168 to 170 °C

Q: With O=C1CNCC2(CC(c3ccccc3)N(Cc3ccccc3)C(c3ccccc3)C2)N1c1ccccc1 (stereo not drawn) [Compound 6a, 9-Benzyl-1,8,10-triphenyl-1,4,9-triazaspiro[5.5]undecan-2-one] as the compound, how does the IC50 ([1]; Leishmania major) read?
A: 4.42 ± 0.22 µM

Q: And the IC50 [2, 9]?
A: 4.67 ± 0.16 µM

Q: And the melting point?
A: 150 to 153 °C

Q: What does the source list for O=C1NCC2(CC(c3ccccc3)N(Cc3ccccc3)C(c3ccccc3)C2)N1c1ccccc1 (stereo not drawn) [Compound 5a, 8-Benzyl-1,7,9-triphenyl-1,3,8-triazaspiro[4.5]decan-2-one]?
A: IC50 [1, 6]: 5.4 ± 0.24 µM; IC50 [2, 7]: 5.45 ± 0.22 µM; melting point: 128 to 130 °C

Q: For COC(=O)C1CC2CCCN2C12C(=O)N(Cc1ccccc1)c1ccccc12 (stereo not drawn) [B], which EC50 (promastigote) is on record?
A: 1.24 to 1.41 µM

Q: And the EC50 (amastigote)?
A: 0.53 to 0.9 µM

Q: What about the “inhibition of bisubunit DNA topoisomerase IB” value [5] of the same compound?
A: catalytic inhibitor
